Here are results for 20 compounds from patent publication US7115619B2, “N8, N13 -disubstituted quino[4,3,2-kl]acridinium salts as therapeutic agents” (Cancer Research Technology Limited, priority 2000, dated 2006).

Series [1] concerns the target T1, telomerase (extracts from A2780 human ovarian carcinoma cells) (Homo sapiens, UniProt O14746).
T1 construct: extracts from exponentially growing A2780 human ovarian carcinoma cells
The experiment in a line: Modified telomeric repeat amplification protocol (TRAP) assay, cell-free. The class given is biochemical. The note with it: A2780 cell extract, agent up to 50 μM, 20 min, read-out: telIC50. On the procedure: The ability of compounds to inhibit telomerase in a cell-free assay was assessed with a modified TRAP assay using extracts from exponentially growing A2780 human ovarian carcinoma cells. The TRAP assay was performed in 2 steps: (a) telomerase-mediated extension of the forward primer (TS: 5′-AATCCGTCGAGCAGAGTT, Oswel Ltd., Southampton, UK) contained in a 40 μL reaction mix comprising TRAP buffer (20 mM Tris-HCl (pH 8.3), 68 mM KCl, 1.5 mM MgCl2, 1 mM EGTA, 0.05% v/v Tween 20), 0.05 μg bovine serum albumin, 50 μM of each deoxynucleotide triphosphate, 0.1 μg TS primer, and 3 μCi of [α-^32P]dCTP (Amersham plc, UK). Protein (0.04 μg) was then incubated with the reaction mix±agent (acid addition and quaternary dimethiodide salts) at final concentrations of up to 50 μM for 20 min at […]. A lysis buffer (no protein) control, heat-inactivated protein control, and 50% protein (0.02 μg) control were included in each assay; and (b) while heating at […]. in a PCR block of a thermal cycler (Hybaid, UK) for 5 min to inactivate telomerase activity, 0.1 μg of reverse CX primer (3′-[…]-5′) and 2 Units of Taq DNA polymerase (“red hot”, Advanced Biotechnologies) were added. A 3-step PCR was then performed: 94° C. for 30 s, 50° C. for 30 s, and […]. for 1 min for 31 cycles. Telomerase-extended PCR products in the presence or absence of compounds were then determined either by electrophoretic separation using 8% w/w acrylamide denaturing gels and analysis by phosphorimaging or autoradiography, or by harvesting on Whatman filters (25 mm glass microfibre) and analysis by liquid scintillation counting.

Series [2] in a line: Growth inhibition, sulforhodamine B (SRB) assay, A2780. It is filed as cell-based. The note with it: human, A2780 ovarian carcinoma cells, 96 hr incubation, read-out: Cytotoxicity IC50 A2780. The method, then:
(§1) Growth inhibition was measured in the following cells lines using the sulforhodamine B (SRB) assay: • A2780: human ovarian carcinoma cell line. • CH1: human ovarian carcinoma cell line. • SKOV-3: human ovarian carcinoma cell line. • A431: human vulval carcinoma cells (short telomeres). • GM847: carcinoma cell line immortalised by ALT pathway.
(§2) Briefly, between 3000 and 6000 cells were seeded into the wells of 96-well microtiter plates and allowed to attach overnight. Test compounds (salts) were dissolved at 500 μM in water and immediately added to wells in quadruplicate at final concentrations of 0.05, 0.25, 1, 5 and 25 μM. Following an incubation period of 96 hr, remaining cells were fixed with ice-cold 10% w/v trichloroacetic acid (30 min) and stained with 0.4% SRB in 1% v/v acetic acid (15 min). Mean absorbance at 540 nm for each drug concentration was expressed as a percentage of the control untreated well absorbance, and IC50 values (concentration required to inhibit cell growth by 50%) were determined for each agent.
Background: The SRB assay estimates cell density from bound dye.

The nature of series [3]: Growth inhibition, sulforhodamine B (SRB) assay, CH1. The class given is cell-based. The note with it: human, CH1 ovarian carcinoma cells, 96 hr incubation, read-out: Cytotoxicity IC50 CH1. The method, then: as §1, §2
Series [4] in a line: Growth inhibition, sulforhodamine B (SRB) assay, SKOV-3. The class given is cell-based. Conditions: human, SKOV-3 ovarian carcinoma cells, 96 hr incubation, read-out: Cytotoxicity IC50 SKOV-3. The method, then:
as §1, §2

Series [5] can be described thus: Growth inhibition, sulforhodamine B (SRB) assay, A431. The class given is cell-based. The note with it: human, A431 vulval carcinoma cells (short telomeres), 96 hr incubation, read-out: Cytotoxicity IC50 A431. On the procedure:
as §2, with “Growth inhibition was measured in the following cells lines using the sulforhodamine B (SRB) assay: • A2780: human ovarian carcinoma cell line. • CH1: human ovarian carcinoma cell line. • SKOV-3: human ovarian carcinoma cell line. • A431: human vulval carcinoma cells (short telomeres). • GM847: carcinoma cell line immortalised by ALT pathway. Briefly,” for “Briefly,”

Series [6] can be described thus: Growth inhibition, sulforhodamine B (SRB) assay, GM847. It is filed as cell-based. The note with it: human, GM847 cells (immortalised by ALT pathway), 96 hr incubation, read-out: Cytotoxicity IC50 GM847. On the procedure: as §2, with “Growth inhibition was measured in the following cells lines using the sulforhodamine B (SRB) assay: • A2780: human ovarian carcinoma cell line. • CH1: human ovarian carcinoma cell line. • SKOV-3: human ovarian carcinoma cell line. • A431: human vulval carcinoma cells (short telomeres). • GM847: carcinoma cell line immortalised by ALT pathway. Briefly,” for “Briefly,”

Counter-ions that a name gives are not always drawn. Some results are limits rather than exact numbers.

As a reminder, the melting point is the temperature, or range, at which the solid turns liquid.

T1 sequence (O14746 whole entry): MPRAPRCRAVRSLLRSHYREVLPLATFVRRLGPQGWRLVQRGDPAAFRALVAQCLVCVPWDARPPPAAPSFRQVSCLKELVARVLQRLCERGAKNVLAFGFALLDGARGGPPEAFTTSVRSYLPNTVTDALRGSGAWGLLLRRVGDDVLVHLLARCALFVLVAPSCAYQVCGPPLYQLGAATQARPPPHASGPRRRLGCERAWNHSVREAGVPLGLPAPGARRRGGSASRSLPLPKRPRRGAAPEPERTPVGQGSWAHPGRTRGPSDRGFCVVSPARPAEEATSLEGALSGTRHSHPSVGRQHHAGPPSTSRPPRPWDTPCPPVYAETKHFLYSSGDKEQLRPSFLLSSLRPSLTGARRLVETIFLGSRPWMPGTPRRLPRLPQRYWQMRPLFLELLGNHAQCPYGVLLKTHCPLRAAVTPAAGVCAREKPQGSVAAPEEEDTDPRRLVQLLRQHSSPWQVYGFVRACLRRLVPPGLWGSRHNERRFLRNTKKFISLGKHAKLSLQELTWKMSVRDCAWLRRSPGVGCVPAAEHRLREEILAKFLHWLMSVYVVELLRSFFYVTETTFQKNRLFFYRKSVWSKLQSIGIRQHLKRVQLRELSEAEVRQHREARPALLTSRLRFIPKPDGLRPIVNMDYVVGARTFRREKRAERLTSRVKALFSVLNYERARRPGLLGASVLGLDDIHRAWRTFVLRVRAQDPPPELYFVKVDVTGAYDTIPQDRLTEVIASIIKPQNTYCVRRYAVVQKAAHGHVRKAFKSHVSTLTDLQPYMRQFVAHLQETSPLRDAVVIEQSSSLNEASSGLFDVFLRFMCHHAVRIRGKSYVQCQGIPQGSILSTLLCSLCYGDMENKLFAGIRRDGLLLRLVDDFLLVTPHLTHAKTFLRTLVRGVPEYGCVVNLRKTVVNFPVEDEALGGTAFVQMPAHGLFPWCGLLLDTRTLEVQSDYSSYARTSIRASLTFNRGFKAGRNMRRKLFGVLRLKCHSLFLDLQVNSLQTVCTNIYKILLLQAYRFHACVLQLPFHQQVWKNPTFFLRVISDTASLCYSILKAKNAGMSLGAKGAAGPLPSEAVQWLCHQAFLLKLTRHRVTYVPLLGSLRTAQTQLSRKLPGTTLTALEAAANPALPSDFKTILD

Turning to `Cc1ccc2c(c1)-c1c3c(cc(C)cc3c3cc(C)ccc3[n+]1C)N2C` [RHPS03, 3,6,8,11,13-Pentamethyl-8H-quino[4,3,2-kl]acridinium methyl sulphate], the IC50 in series [1] was 180 nM. Moreover, the IC50 at 96 h in series [2] turned out to be 330 nM; in series [3] it was 290 nM; in series [4] it was 0.75 µM.
Compound `COC(=O)/C=C/c1ccc2c(c1)c1cccc3c1c([n+]2C)-c1ccccc1N3C` (as salt: iodide) [RHPS15, (E)-3-(8,13-Dimethyl-8H-quino[4,3,2-kl]acridinium-3-yl)-acrylic acid methyl ester iodide] displayed a melting point of 200 to 202 °C.
`Cc1cc2c3c([n+](C)c4ccccc4c3c1)-c1ccccc1N2C` (as salt: sulphate) [RHPS01, 6,8,13-Trimethyl-8H-quino[4,3,2-kl]acridinium methyl sulphate] displayed a melting point of 190 to 192 °C.
As to `CN1c2ccccc2-c2c3c1cccc3c1cc(Cl)ccc1[n+]2C` [RHPS06, 3-Chloro-8,13-dimethyl-8H-quino[4,3,2-kl]acridinium iodide], the IC50 in series [1] amounted to 260 nM. For the same compound, the IC50 at 96 h in series [2] is 1100 nM; in series [3], 500 nM; in series [4], 12.5 µM.
For `Cc1cc2c3c([n+](C)c4ccccc4c3c1)-c1ccccc1N2C` [RHPS01, 6,8,13-Trimethyl-8H-quino[4,3,2-kl]acridinium methyl sulphate], in series [1], the IC50 came to 740 nM. The IC50 at 96 h in series [2] turned out to be 900 nM; in series [3], 370 nM; in series [4], 3.6 µM.
The matching figures for `CN1c2ccccc2-c2c3c1cccc3c1ccccc1[n+]2C` [RHPS05, 8,13-Dimethyl-8H-quino[4,3,2-kl]acridinium iodide]: 1550 nM, 1600 nM, 1100 nM and 18 µM.
The compound `CN1c2ccccc2-c2c3c1cccc3c1cc(Cl)ccc1[n+]2C` (as salt: iodide) [RHPS06, 3-Chloro-8,13-dimethyl-8H-quino[4,3,2-kl]acridinium iodide] showed a melting point of 225 to 227 °C.
With `CN1c2cc(Cl)ccc2-c2c3c1cccc3c1cc(Cl)ccc1[n+]2C` [RHPS07, 3,10-Dichloro-8,13-dimethyl-8H-quino[4,3,2-kl]acridinium iodide], the IC50 in series [1] was determined as 940 nM. Also, the values for the IC50 at 96 h in series [2], in series [3] and in series [4] were 14500 nM, 3800 nM and more than 25 µM, respectively.
Take `COc1cc2c3c([n+](C)c4ccc(Cl)cc4c3c1)-c1ccccc1N2C` [RHPS10, 3-Chloro-8,13-dimethyl-6-methoxy-8H-quino[4,3,2-kl]acridinium iodide]: the IC50 in series [1] was 240 nM. For the same compound, the IC50 at 96 h in series [3] came out at 1100 nM; in series [4] it was 6.3 µM; in series [5], 3200 nM; in series [6], 800 nM.
Take `COc1cc2c3c([n+](C)c4ccccc4c3c1)-c1ccc(Cl)cc1N2C` [RHPS12, 10-Chloro-8,13-dimethyl-6-methoxy-8H-quino[4,3,2-kl]acridinium iodide]: the IC50 in series [1] amounted to 280 nM. In addition, the IC50 at 96 h was 300 nM in series [3], 10 µM in series [4], 1000 nM in series [5] and 400 nM in series [6].
The matching figures for `CC(=O)Oc1cc2c3c([n+](C)c4ccccc4c3c1)-c1ccccc1N2C` [RHPS11, 6-Acetoxy-8,13-dimethyl-8H-quino[4,3,2-kl]acridinium iodide]: 1700 nM, 1600 nM, 3.5 µM, 1700 nM and 17700 nM.
In the case of `Cc1cc2c3c([n+](C)c4ccc(Cl)cc4c3c1)-c1cc(Cl)ccc1N2C` [RHPS02, 3,11-Dichloro-6,8,13-trimethyl-8H-quino[4,3,2-kl]acridinium methylsulfate], in series [1], the IC50 is 240 nM. Moreover, the IC50 at 96 h in series [2] is 1300 nM; in series [3] it was 1400 nM; in series [4] it was 9.3 µM.
For the compound `Cc1cc2c3c([n+](C)c4ccc(F)cc4c3c1)-c1cc(F)ccc1N2C` [RHPS04, 3,11-Difluoro-6,8,13-trimethyl-8H-quino[4,3,2-kl]acridinium methyl sulphate], in series [1], the IC50 was determined as 310 nM. For the same compound, the figures for the IC50 at 96 h in series [2], in series [3] and in series [4] were 1100 nM, 500 nM and 23 µM, respectively.
As to `COC(=O)CCc1ccc2c(c1)c1cccc3c1c([n+]2C)-c1ccccc1N3C` [RHPS09, 3-(8,13-Dimethyl-8H-quino[4,3,2-kl]acridinium-3-yl)-propionic acid methyl ester iodide], the IC50 in series [1] was 3020 nM. Also, the IC50 at 96 h is more than 25000 nM in series [2], 11500 nM in series [3] and more than 25 µM in series [4].
Regarding `COC(=O)Oc1cc2c3c([n+](C)c4ccccc4c3c1)-c1ccccc1N2C` [RHPS13, 6-Methoxycarbonyloxy-8,13-dimethyl-8H-quino[4,3,2-kl]acridinium iodide], the IC50 in series [1] stood at 570 nM. Moreover, the IC50 at 96 h in series [3] was 200 nM; in series [4], 1.5 µM; in series [5], 400 nM; in series [6], 500 nM.
Take `Cc1ccc2c(c1)-c1c3c(cc(C)cc3c3cc(C)ccc3[n+]1C)N2C` (as salt: sulphate) [RHPS03, 3,6,8,11,13-Pentamethyl-8H-quino[4,3,2-kl]acridinium methyl sulphate]: the melting point lay in the range of 240 to 242 °C.
For `CN1c2ccccc2-c2c3c1cccc3c1cc(/C=C/C(=O)N3CCOCC3)ccc1[n+]2C` [RHPS16, 8,13-Dimethyl-(E)-3-(3-morpholin-4-yl-3-oxo-propenyl)-8H-quino[4,3,2-kl]acridinium iodide], in series [1], the IC50 is 370 nM. Besides, the IC50 at 96 h in series [3] is 17800 nM; in series [4] it was more than 25 µM; in series [5] it was 12500 nM; in series [6], more than 25000 nM.
In turn, `Cc1cc2c3c([n+](C)c4ccc(Cl)cc4c3c1)-c1cc(Cl)ccc1N2C` (as salt: sulfate) [RHPS02, 3,11-Dichloro-6,8,13-trimethyl-8H-quino[4,3,2-kl]acridinium methylsulfate] displayed a melting point of 250 to 252 °C.
Consider `COC(=O)/C=C/c1ccc2c(c1)c1cccc3c1c([n+]2C)-c1ccccc1N3C` [RHPS15, (E)-3-(8,13-Dimethyl-8H-quino[4,3,2-kl]acridinium-3-yl)-acrylic acid methyl ester iodide], for which, in series [1], the IC50 is 190 nM. For the same compound, the IC50 at 96 h in series [3] is 2200 nM; in series [4], 19 µM; in series [5] it was 3200 nM; in series [6], 4500 nM.
Consider `COc1cc2c3c([n+](C)c4ccccc4c3c1)-c1ccccc1N2C` [RHPS08, 8,13-Dimethyl-6-methoxy-8H-quino[4,3,2-kl]acridinium iodide], for which, in series [1], the IC50 is 470 nM. In addition, the IC50 at 96 h in series [2] is 620 nM; in series [3], 130 nM; in series [4], 3.6 µM.
